Some results are limits rather than exact numbers.

Drawing on US10493060B2, “Spirocyclic compounds” (ZENO ROYALTIES & MILESTONES, LLC, priority 2015, dated 2019), this text covers IC50 for 18 compounds.

One assay concerns the target Activated ERK2 (Homo sapiens (Human), UniProt P28482). In words: Active ERK2 kinase assay (Mobility Shift Assay). It counts as biochemical. As for the experimental part: (§1) Activated ERK1 and ERK2 activity was determined in a Mobility Shift Assay (MSA) format as follows: Compound and kinase solution were prepared with assay buffer (20 mM HEPES, 0.01% Triton X-100, 2 mM DTT, pH7.5) and mixed and incubated in for 30 mins at rt. ERK1 & ERK2 were then activated by the addition of Fl-Substrate, ATP and metal solution and incubated for 1 h at rt. After 1 h, the reaction was terminated by the addition of […] of Termination Buffer (QuickScout Screening Assist MSA; Carna Biosciences) to the well. The reaction mixture was applied to LabChip™ system (PerkinElmer), and the product and substrate peptide peaks were separated, analyzed and quantitated. The kinase reaction is evaluated by the product ratio calculated from peak heights of product (P) and substrate (S) peptides (P/(P+S)).

For the next assay, the system named is A375 (melanoma) cells. The experiment in a line: Proliferation assay (CellTiter-Glo), A375. It counts as cell-based. Particulars: Homo sapiens, A-375, 72 h, 3 days. The procedure: A375 (melanoma), Colo-205 (colon cancer), Miapaca (pancreatic), HPAFII (pancreatic), sNF02.0 (neurofibromatosis type 1), sNF96.2 (neurofibromatosis type 1) and 8505 (Thyroid) cells were grown and maintained in RPMI-1640 medium containing 100 U/mL penicillin-streptomycin and 10% fetal bovine serum. Cells were in growth medium in 96-well opaque-walled clear bottom plates and incubated the in the CO2 incubator overnight before treatment. Cells were treated with compounds diluted in DMSO and a 10 point 3-fold serial dilutions were done. Plates were placed in 37° C., 5% CO2 for to incubate for 3 days. Before they were developed by adding 100 μL of CellTiter-Glo reagent (Promega) to the assay plate, plates were shaken briefly for 2 mins and allowed to incubate at rt for 10 mins. The bottom of the plates was pasted with white back seal and luminescence was recorded with Flexstation3 with setting of luminescence, integration time 500 ms.
For orientation: In ATP-based viability assays light output follows the ATP content of the culture.

Another assay concerns the target Activated ERK1 (Homo sapiens (Human), UniProt P27361). In words: Active ERK1 kinase assay (Mobility Shift Assay). It counts as biochemical. As for the experimental part:
as §1

Sequence of Activated ERK1 (P27361 whole entry): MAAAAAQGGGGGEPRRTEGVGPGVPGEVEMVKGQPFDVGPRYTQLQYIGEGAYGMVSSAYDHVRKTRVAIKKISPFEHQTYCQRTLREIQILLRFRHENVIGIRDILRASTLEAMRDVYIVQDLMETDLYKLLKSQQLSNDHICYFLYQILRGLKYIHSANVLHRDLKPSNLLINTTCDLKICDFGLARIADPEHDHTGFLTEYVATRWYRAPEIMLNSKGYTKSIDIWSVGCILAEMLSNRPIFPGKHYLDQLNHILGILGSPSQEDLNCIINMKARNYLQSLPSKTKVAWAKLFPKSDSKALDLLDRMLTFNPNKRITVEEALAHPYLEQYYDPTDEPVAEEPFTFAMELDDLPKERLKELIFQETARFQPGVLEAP
Sequence of Activated ERK2 (P28482 whole entry): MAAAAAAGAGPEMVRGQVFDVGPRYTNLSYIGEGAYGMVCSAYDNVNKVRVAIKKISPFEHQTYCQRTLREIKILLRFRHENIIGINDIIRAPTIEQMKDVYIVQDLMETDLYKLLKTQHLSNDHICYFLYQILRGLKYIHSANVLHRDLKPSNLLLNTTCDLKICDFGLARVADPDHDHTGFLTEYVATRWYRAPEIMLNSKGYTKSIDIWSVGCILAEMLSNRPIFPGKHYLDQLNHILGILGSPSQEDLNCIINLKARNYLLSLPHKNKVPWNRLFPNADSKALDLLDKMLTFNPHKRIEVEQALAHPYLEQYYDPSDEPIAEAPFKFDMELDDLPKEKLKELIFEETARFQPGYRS

As a reminder, the IC50 is the concentration that gives 50% inhibition. Take `Cn1cc(-c2ccc(C3=CCN(C(=O)CN4CC[C@]5(CCN(c6ccc7[nH]nc(-c8ccnc(C(F)(F)F)c8)c7c6)C5=O)C4)CC3)cc2)nn1` [Example 41, (S)-7-(2-(4-(4-(1-methyl-1H-1,2,3-triazol-4-yl)phenyl)-3,6-dihydropyridin-1 (2H)-yl)-2-oxoethyl)-2-(3-(2-(trifluoromethyl)pyridin-4-yl)-1H-indazol-5-yl)-2,7-diazaspiro[4.4]nonan-1-one]: the IC50 on Activated ERK2 is no more than 50 nM; with A375 (melanoma) cells, no more than 500 nM.
`CC(C)Oc1cc(-c2n[nH]c3ccc(N4CC[C@]5(CCN(CC(=O)N6CC=C(c7ccc(-c8ncn(C)n8)cc7)CC6)C5)C4=O)cc23)ccn1` [Example 30, (S)-2-(3-(2-Isopropoxypyridin-4-yl)-1H-indazol-5-yl)-7-(2-(4-(4-(1-methyl-1H-1,2,4-triazol-3-yl)phenyl)-3,6-dihydropyridin-1(2H)-yl)-2-oxoethyl)-2,7-diazaspiro[4.4]nonan-1-one]: the IC50 is no more than 50 nM on Activated ERK1, no more than 50 nM on Activated ERK2 and no more than 500 nM in the assay on A375 (melanoma) cells.
As to `Cn1cnc(-c2ccc(C3=CCN(C(=O)CN4CC[C@]5(CCN(c6ccc7[nH]nc(-c8ccnc(C(F)F)c8)c7c6)C5=O)C4)CC3)cc2)n1` [Example 40, (S)-2-(3-(2-(Difluoromethyl)pyridin-4-yl)-1H-indazol-5-yl)-7-(2-(4-(4-(1-methyl-1H-1,2,4-triazol-3-yl)phenyl)-3,6-dihydropyridin-1(2H)-yl)-2-oxoethyl)-2,7-diazaspiro[4.4]nonan-1-one], the IC50 is no more than 50 nM on Activated ERK2 and no more than 500 nM in the assay on A375 (melanoma) cells.
On the same counts, the results for `CC(C)Oc1ccc(-c2n[nH]c3ccc(N4CC[C@]5(CCN(CC(=O)N6CC=C(c7ccc(-c8cn(C)cn8)cc7)CC6)C5)C4=O)cc23)cn1` [Example 26, (S)-2-(3-(6-Isopropoxypyridin-3-yl)-1H-indazol-5-yl)-7-(2-(4-(4-(1-methyl-1H-imidazol-4-yl)phenyl)-3,6-dihydropyridin-1(2H)-yl)-2-oxoethyl)-2,7-diazaspiro[4.4]nonan-1-one] are no more than 50 nM and no more than 500 nM.
On the same counts, the results for `CC(C)Oc1ccc(-c2n[nH]c3ccc(N4CC[C@]5(CCN(CC(=O)N6CCN(c7ccc(-c8ncn(C)n8)cc7)CC6)C5)C4=O)cc23)cn1` [Example 32, (S)-2-(3-(6-Isopropoxypyridin-3-yl)-1H-indazol-5-yl)-7-(2-(4-(4-(1-methyl-1H-1,2,4-triazol-3-yl)phenyl)piperazin-1-yl)-2-oxoethyl)-2,7-diazaspiro[4.4]nonan-1-one] are no more than 50 nM and no more than 500 nM.
As for `Cn1cnc(-c2ccc(C3=CCN(C(=O)CN4CC[C@]5(CCN(c6ccc7[nH]ncc7c6)C5=O)C4)CC3)cc2)n1` [Example 36, (S)-2-(1H-indazol-5-yl)-7-(2-(4-(4-(1-methyl-1H-1,2,4-triazol-3-yl)phenyl)-3,6-dihydropyridin-1(2H)-yl)-2-oxoethyl)-2,7-diazaspiro[4.4]nonan-1-one], the values for the IC50 at Activated ERK2 and with A375 (melanoma) cells were 50 to 250 nM and no less than 1000 nM, respectively.
`CC(C)Oc1ccc(-c2n[nH]c3ccc(N4CC[C@]5(CCN(CC(=O)N6CCC(c7ccc(-c8ncn(C)n8)cc7)CC6)C5)C4=O)cc23)cn1` [Example 16, (S)-2-(3-(6-Isopropoxypyridin-3-yl)-1H-indazol-5-yl)-7-(2-(4-(4-(1-methyl-1H-1,2,4-triazol-3-yl)phenyl)piperidin-1-yl)-2-oxoethyl)-2,7-diazaspiro[4.4]nonan-1-one]: the IC50 on Activated ERK1 and on Activated ERK2 was no more than 50 nM in each case.
Regarding `CC(C)Oc1ccc(-c2n[nH]c3ccc(N4CCC5(CCN(CC(=O)N6CC=C(c7ccc(-c8ncn(C)n8)cc7)CC6)C5)C4=O)cc23)cn1` (stereo not shown) [Example 1, 2-(3-(6-Isopropoxypyridin-3-yl)-1H-indazol-5-yl)-7-(2-(4-(4-(1-methyl-1H-1,2,4-triazol-3-yl)phenyl)-3,6-dihydropyridin-1(2H)-yl)-2-oxoethyl)-2,7-diazaspiro[4.4]nonan-1-one], the IC50 at Activated ERK1 and on Activated ERK2 was no more than 50 nM each time.
Regarding `Cc1cc(-c2n[nH]c3ccc(N4CCC5(CCN(CC(=O)N6CC=C(c7ccc(-c8ncn(C)n8)cc7)CC6)C5)C4=O)cc23)ccn1` (stereo not shown) [Example 6, 7-(2-(4-(4-(1-Methyl-1H-1,2,4-triazol-3-yl)phenyl)-3,6-dihydropyridin-1(2H)-yl)-2-oxoethyl)-2-(3-(2-methylpyridin-4-yl)-1H-indazol-5-yl)-2,7-diazaspiro[4.4]nonan-1-one], the IC50 at Activated ERK1 and at Activated ERK2 was no more than 50 nM in each case.
For `Cn1cnc(-c2ccc(C3=CCN(C(=O)CN4CC[C@]5(CCN(c6ccc7[nH]nc(-c8cnccc8C(F)(F)F)c7c6)C5=O)C4)CC3)cc2)n1` [Example 34, (S)-7-(2-(4-(4-(1-Methyl-1H-1,2,4-triazol-3-yl)phenyl)-3,6-dihydropyridin-1(2H)-yl)-2-oxoethyl)-2-(3-(4-(trifluoromethyl)pyridin-3-yl)-1H-indazol-5-yl)-2,7-diazaspiro[4.4]nonan-1-one], the IC50 at Activated ERK2 was no less than 250 nM; in the assay on A375 (melanoma) cells it was no less than 1000 nM.
Take `CC(C)Oc1ccc(-c2n[nH]c3ccc(N4CC[C@]5(CCN(CC(=O)N6CC=C(c7ccc(-n8ccnn8)cc7)CC6)C5)C4=O)cc23)cn1` [Example 14, (S)-7-(2-(4-(4-(1H-1,2,3-Triazol-1-yl)phenyl)-3,6-dihydropyridin-1(2H)-yl)-2-oxoethyl)-2-(3-(6-isopropoxypyridin-3-yl)-1H-indazol-5-yl)-2,7-diazaspiro[4.4]nonan-1-one]: the concentration for half-maximal inhibition (IC50) at Activated ERK1 and on Activated ERK2 was no more than 50 nM throughout.
With `CC(C)Oc1ccc(-c2n[nH]c3ccc(N4CC[C@@]5(CCN(CC(=O)N6CC=C(c7ccc(-c8ncn(C)n8)cc7)CC6)C5)C4=O)cc23)cn1` [Example 11, (R)-2-(3-(6-Isopropoxypyridin-3-yl)-1H-indazol-5-yl)-7-(2-(4-(4-(1-methyl-1H-1,2,4-triazol-3-yl)phenyl)-3,6-dihydropyridin-1 (2H)-yl)-2-oxoethyl)-2,7-diazaspiro[4.4]nonan-1-one], the half-maximal inhibitory concentration (IC50) on Activated ERK1 and at Activated ERK2 was no less than 250 nM in each case.
Regarding `CC(C)Oc1ccc(-c2n[nH]c3ccc(N4CCC5(CCN(CC(=O)N6CCN(c7ccc(-c8ncn(C)n8)cc7)CC6)C5)C4)cc23)cn1` (stereo not shown) [Example 2, 2-(7-(3-(6-Isopropoxypyridin-3-yl)-1H-indazol-5-yl)-2,7-diazaspiro[4.4]nonan-2-yl)-1-(4-(4-(1-methyl-1H-1,2,4-triazol-3-yl)phenyl)piperazin-1-yl)ethan-1-one], the concentration for half-maximal inhibition (IC50) at Activated ERK1 and at Activated ERK2 was no less than 250 nM in each case.
With `Cn1cnc(-c2ccc(C3=CCN(C(=O)CN4CC[C@]5(CCN(c6ccc7[nH]nc(N8CCOCC8)c7c6)C5=O)C4)CC3)cc2)n1` [Example 33, (S)-7-(2-(4-(4-(1-Methyl-1H-1,2,4-triazol-3-yl)phenyl)-3,6-dihydropyridin-1 (2H)-yl)-2-oxoethyl)-2-(3-morpholino-1H-indazol-5-yl)-2,7-diazaspiro[4.4]nonan-1-one], the figures for the IC50 on Activated ERK2 and in the assay with A375 (melanoma) cells were no more than 50 nM and no more than 500 nM, respectively.
In the same order, the values of `Cn1cnc(-c2ccc(C3=CCN(C(=O)CN4CC[C@]5(CCN(c6ccc7[nH]nc(-c8ccnc(C(C)(F)F)c8)c7c6)C5=O)C4)CC3)cc2)n1` [Example 39, (S)-2-(3-(2-(1,1-difluoroethyl)pyridin-4-yl)-1H-indazol-5-yl)-7-(2-(4-(4-(1-methyl-1H-1,2,4-triazol-3-yl)phenyl)-3,6-dihydropyridin-1(2H)-yl)-2-oxoethyl)-2,7-diazaspiro[4.4]nonan-1-one] are no more than 50 nM and no more than 500 nM.
In the same order, the values of `Cc1nnc(-c2ccc(C3=CCN(C(=O)CN4CC[C@]5(CCN(c6ccc7[nH]nc(-c8ccnc(C(F)(F)F)c8)c7c6)C5=O)C4)CC3)cc2)o1` [Example 42, (S)-7-(2-(4-(4-(5-Methyl-1,3,4-oxadiazol-2-yl)phenyl)-3,6-dihydropyridin-1 (2H)-yl)-2-oxoethyl)-2-(3-(2-(trifluoromethyl)pyridin-4-yl)-1H-indazol-5-yl)-2,7-diazaspiro[4.4]nonan-1-one] are no more than 50 nM and no more than 500 nM.
For `CC(C)Oc1ccc(-c2n[nH]c3ccc(N4CCC5(CN(CC(=O)N6CC=C(c7ccc(-c8ncn(C)n8)cc7)CC6)C5)C4=O)cc23)cn1` [Example 13, 6-(3-(6-Isopropoxypyridin-3-yl)-1H-indazol-5-yl)-2-(2-(4-(4-(1-methyl-1H-1,2,4-triazol-3-yl)phenyl)-3,6-dihydropyridin-1(2H)-yl)-2-oxoethyl)-2,6-diazaspiro[3.4]octan-5-one], the IC50 on Activated ERK1 and at Activated ERK2 was 50 to 250 nM throughout.
Take `Cc1noc(-c2ccc(C3=CCN(C(=O)CN4CC[C@]5(CCN(c6ccc7[nH]nc(-c8ccnc(C(F)(F)F)c8)c7c6)C5=O)C4)CC3)cc2)n1` [Example 43, (S)-7-(2-(4-(4-(3-methyl-1,2,4-oxadiazol-5-yl)phenyl)-3,6-dihydropyridin-1(2H)-yl)-2-oxoethyl)-2-(3-(2-(trifluoromethyl)pyridin-4-yl)-1H-indazol-5-yl)-2,7-diazaspiro[4.4]nonan-1-one]: the IC50 on Activated ERK2 was no more than 50 nM; in the assay on A375 (melanoma) cells, no less than 1000 nM.
